Reference: patent US20230295181A1, “INHIBITOR OF APOPTOSIS (IAP) PROTEIN ANTAGONISTS” (Sanford Burnham Prebys Medical Discovery Institute, priority 2020, published 2023)
Counter-ions that a name gives are not always drawn.

How the values were obtained:
Format in all cases: cell-based
SKOV-3 cancer cell lines = test: SKOV-3 cell viability after treatment with 10 μM test compound; conditions: for viability at 10 µM: Homo sapiens, SK-OV-3, 10 micromolar test compound, SKOV-3 cells; for % viability after treatment with 10 micromolar of test compound (SKOV-3 cells): 10 micromolar test compound, hydrochloride
Experimental: SKOV-3 cancer cell lines were treated with a test compound, either as a pure enantiomer or a mixture of stereoisomers, at a concentration of 10 μM. Cell viability was evaluated following treatment with a compound as disclosed in Table B. Viability of cancer cells following treatment is indicated according to the following legend:
A=0-25% viability B=26-50% viability C=>50% viability

SKOV-3 = test: Cell viability (CellTiterGlo), SKOV-3; conditions: Homo sapiens, SK-OV-3
Experimental: (§1) Candidate compounds are tested in 384-well plates for effects on cell viability in the presence or absence of an appropriate conventional anticancer drug. Cell viability is indirectly monitored in the first instance using CellTiterGlo (Promega Corp., Madison, WI) (Table D). To determine if cell death is apoptotic, the induction of caspase activity is assessed utilizing the CaspaseGlo Assay system (Promega Corp., Madison, WI) (Table E). Cell viability is monitored 1 to 3 days after addition of compounds and conventional drugs. […] A compound of any of the formulae as disclosed herein is evaluated in combination with said anticancer drug to determine which ML-IAP antagonist can sensitize most efficaciously. Select candidate compounds are tested in 14 point drug dose response (DDR) curves in a 384-well format in order to establish potency in combination with decreasing concentrations of lung cancer relevant drug regimens. Furthermore, checker-board titrations of a conventional drug and the candidate molecules are performed to search for synergy (using ISOBOLOGRAM analysis). Compounds and combinations as described herein are also tested for cytotoxicity against normal human cells (e.g. primary fibroblasts, lymphocytes, hepatocytes, epithelial and endothelial cells) using known methods.
(§2) Cell viability was evaluated following treatment with a compound as disclosed in Table D. Viability of cancer cells following treatment is indicated according to the following legend: […]

OVCAR-4 = test: Cell viability (CellTiterGlo), OVCAR-4; conditions: Homo sapiens
Experimental: as §1, §2

IC50 (SKOV-3) [µM]	IC50 (OVCAR-4) [µM]	Compound	viability at 10 µM (SKOV-3 cancer cell lines) [%]	% viability after treatment with 10 micromolar of test compound (SKOV-3 cells) (SKOV-3 cancer cell lines)
0.01 to 0.1	0.1 to 1	CCC1C[C@@H]2SCC[C@H](NC(=O)[C@H](C)NC)C(=O)N2[C@@H]1C(=O)N[C@@H]1CCCc2ccccc21 (stereo partly shown) [Compound 36, hydrochloride]	26 to 50	
0.01 to 0.1	0.1 to 1	CN[C@@H](C)C(=O)N[C@H]1CCO[C@H]2CC(C)(C)[C@@H](C(=O)N[C@@H]3CCSc4ccccc43)N2C1=O [Compound 69, (4S,7S,9aS)-8,8-dimethyl-4-((S)-2-(methylamino)propanamido)-5-oxo-N—((R)-thiochroman-4-yl)octahydropyrrolo[2,1-b][1,3]oxazepine-7-carboxamide hydrochloride]	0 to 25	
> 1	> 1	CN[C@@H](C)C(=O)N[C@H]1CCO[C@H]2CC(C)(C)[C@@H](CN[C@@H]3CCCc4ccccc43)N2C1=O [Compound 56, (S)—N-((4S,7S,9aS)-8,8-dimethyl-5-oxo-7-((((R)-1,2,3,4-tetrahydronaphthalen-1-yl)amino)methyl)octahydropyrrolo[2,1-b][1,3]oxazepin-4-yl)-2-(methylamino)propanamide dihydrochloride]	> 50	
0.1 to 1	0.1 to 1	CN[C@@H](C)C(=O)N[C@H]1Cc2cc(OC)ccc2[C@H]2CC(C)(C)[C@@H](C(=O)N[C@@H]3CCCc4ccccc43)N2C1=O [Compound 9, (6S,11bR)-9-methoxy-2,2-dimethyl-6-((S)-2-(methylamino)propanamido)-5-oxo-N—((R)-1,2,3,4-tetrahydronaphthalen-1-yl)-2,3,5,6,7,11b-hexahydro-1H-benzo[c]pyrrolo[1,2-a]azepine-3-carboxamide hydrochloride]	0 to 25	
> 1	> 1	CN[C@@H](C)C(=O)N[C@H]1CCS[C@H]2CC(C(C)C)(C(C)C)[C@@H](C(=O)N[C@@H]3CCCc4ccccc43)N2C1=O [Compound 41, 4S,9aS)-8,8-diisopropyl-4-((S)-2-(methylamino)propanamido)-5-oxo-N—((R)-1,2,3,4-tetrahydronaphthalen-1-yl)octahydropyrrolo[2,1-b][1,3]thiazepine-7-carboxamide hydrochloride]		A (A=0-25% viability)
> 1	> 1	CN[C@@H](C)C(=O)N[C@H]1Cc2ccc(OC)cc2[C@H]2CC(C)(C)[C@@H](C(=O)N[C@@H]3CCCc4ccccc43)N2C1=O [Compound 11, (6S,11bR)-10-methoxy-2,2-dimethyl-6-((S)-2-(methylamino)propanamido)-5-oxo-N—((R)-1,2,3,4-tetrahydronaphthalen-1-yl)-2,3,5,6,7,11b-hexahydro-1H-benzo[c]pyrrolo[1,2-a]azepine-3-carboxamide hydrochloride]	26 to 50	
		C=CCC1(CC=C)C[C@@H]2OCC[C@H](NC(=O)[C@H](C)NC)C(=O)N2[C@@H]1C(=O)NC(c1ccccc1)c1ccccc1 [Compound 51, (4S)-8,8-diallyl-N-benzhydryl-4-((S)-2-(methylamino)propanamido)-5-oxooctahydropyrrolo[2,1-b][1,3]oxazepine-7-carboxamide hydrochloride]		B (B=26-50% viability)
		CN[C@@H](C)C(=O)N[C@H]1Cc2cc(OC)ccc2[C@H]2CC(C)(C)[C@H](C(=O)N[C@@H]3CCCc4ccccc43)N2C1=O [Compound 8, (6S,11bR)-9-methoxy-2,2-dimethyl-6-((S)-2-(methylamino)propanamido)-5-oxo-N—((R)-1,2,3,4-tetrahydronaphthalen-1-yl)-2,3,5,6,7,11b-hexahydro-1H-benzo[c]pyrrolo[1,2-a]azepine-3-carboxamide hydrochloride]	26 to 50	
		CCC1C[C@@H]2OCC[C@H](NC(=O)[C@H](C)NC)C(=O)N2C1C(=O)N[C@@H]1CCCc2ccccc21 (stereo partly drawn) [Compound 20, (4S)-8,8-ethyl-4-((S)-2-(methylamino)propanamido)-5-oxo-N—((R)-1,2,3,4-tetrahydronaphthalen-1-yl)octahydropyrrolo[2,1-b][1,3]oxazepine-7-carboxamide hydrochloride]	26 to 50	
		C=CCC1(CC=C)C[C@@H]2OCC[C@H](NC(=O)[C@H](C)NC)C(=O)N2[C@@H]1C(=O)NC(c1ccccc1)c1ccccc1 [Compound 48, (4S)-8,8-diallyl-N-benzhydryl-4-((S)-2-(methylamino)propanamido)-5-oxooctahydropyrrolo[2,1-b][1,3]oxazepine-7-carboxamide hydrochloride]		C (C=>50% viability)
		CN[C@@H](C)C(=O)N[C@H]1CCS[C@H]2CC(C)(C)[C@@H](C(=O)N[C@H](CCC(=O)O)c3ccccc3)N2C1=O [Compound 77, (R)-4-((4S,7S,9aS)-8,8-dimethyl-4-((S)-2-(methylamino)propanamido)-5-oxooctahydropyrrolo[2,1-b][1,3]thiazepine-7-carboxamido)-4-phenylbutanoic acid hydrochloride]	26 to 50	
		C=CCC1C[C@@H]2OCC[C@H](NC(=O)[C@H](C)NC)C(=O)N2[C@@H]1C(=O)NC(c1ccccc1)c1ccccc1 (stereo partly drawn) [Compound 53, (4S)-8,8-allyl-N-benzhydryl-4-((S)-2-(methylamino)propanamido)-5-oxooctahydropyrrolo[2,1-b][1,3]oxazepine-7-carboxamide hydrochloride]	26 to 50	
		C=CCC1(CC=C)C[C@@H]2OCC[C@H](NC(=O)[C@H](C)NC)C(=O)N2C1C(=O)N[C@@H]1CCCc2ccccc21 (stereo partly drawn) [Compound 12, (4S,9aS)-8,8-diallyl-4-((S)-2-(methylamino)propanamido)-5-oxo-N—((R)-1,2,3,4-tetrahydronaphthalen-1-yl)octahydropyrrolo[2,1-b][1,3]oxazepine-7-carboxamide hydrochloride]	26 to 50	
		C=CCC1C[C@@H]2OCC[C@H](NC(=O)[C@H](C)NC)C(=O)N2[C@H]1C(=O)N[C@@H]1CCCc2ccccc21 (stereo partly drawn) [Compound 13, (4S,9aS)-8,8-allyl-4-((S)-2-(methylamino)propanamido)-5-oxo-N—((R)-1,2,3,4-tetrahydronaphthalen-1-yl)octahydropyrrolo[2,1-b][1,3]oxazepine-7-carboxamide hydrochloride]	26 to 50	
		CCC1(CC)C[C@@H]2SCC[C@H](NC(=O)[C@H](C)NC)C(=O)N2[C@@H]1C(=O)N[C@@H]1CCCc2ccccc21 [Compound 37, (4S,9aS)-8,8-diethyl-4-((S)-2-(methylamino)propanamido)-5-oxo-N—((R)-1,2,3,4-tetrahydronaphthalen-1-yl)octahydropyrrolo[2,1-b][1,3]thiazepine-7-carboxamide hydrochloride]		B (B=26-50% viability)
		CN[C@@H](C)C(=O)N[C@H]1CCO[C@H]2CC(CCc3ccccc3)(CCc3ccccc3)[C@@H](C(=O)N[C@@H]3CCCc4ccccc43)N2C1=O [Compound 25, (4S,9aS)-4-((S)-2-(methylamino)propanamido)-5-oxo-8,8-diphenethyl-N—((R)-1,2,3,4-tetrahydronaphthalen-1-yl)octahydropyrrolo[2,1-b][1,3]oxazepine-7-carboxamide hydrochloride]		B (B=26-50% viability)
